# Read-outs that look alike come from different tables or passages of the source. Where a SMILES comes first, the peptide text is derived from it. [ ]: non-standard residue; d: D form. ξ: configuration not given here. Oic = O=C(O)[C@@H]1C[C@@H]2CCCC[C@@H]2N1; Oic(3aξ,7aξ) = O=C(O)[C@@H]1CC2CCCCC2N1; Tic = O=C(O)[C@@H]1Cc2ccccc2CN1; Orn = NCCC[C@H](N)C(=O)O; Dab = NCC[C@H](N)C(=O)O; Dap = NC[C@H](N)C(=O)O
# Tests used:
# P. aeruginosa PAO1 [1] = type: cell-based, Pseudomonas aeruginosa
# Source text: Table 3 In vitro minimum inhibitory concentration (MIC) and minimum bactericide concentration (MBC) activity against K. pneumonia and P. aeruginosa. | column: P. aeruginosa PAO1 / MBC (µg/mL)/(μM)
# [2] = type: physicochemical
# Protocol: (§1) Peptide solutions were prepared by dissolving approximately 2 mg of AMPs 70, 74, 75, 79, or 80 in 1.0 mL of phosphate buffer. […] For the LPS liposome studies 350 μL of stock LPS solution was mixed with 50 μL of stock peptide solution. CD spectroscopy is a sensitive technique, so it is commonly used to monitor conformational changes in peptides and proteins. […] All CD spectra were obtained by acquiring 8 scans using a 0.1 mm cylindrical quartz cell with a spectral range of 260 to 195 nm (at wavelengths below 195 nm the HTV exceeded 400, and therefore data collection was terminated at 195 nm) and a scanning rate of 20 nm/min. Acquisition parameters were bandwidth 1 nm, data pitch 0.2 nm, response time 2.0 s, and 5 mdeg sensitivity. Spectra were collected at room temperature (298 K). Contributions from LPS were eliminated by subtracting from the corresponding AMP-LPS solutions. All analyses of CD spectra were conducted after smoothing with a means-movement function.
# K. pneumoniae BAMC 07-18 [3] = conditions: for in vitro inhibitory activity: against K. pneumoniae
# K. pneumoniae BAMC 07-18 [4] = type: cell-based, Klebsiella pneumoniae
# Source text: Table 3 In vitro minimum inhibitory concentration (MIC) and minimum bactericide concentration (MBC) activity against K. pneumonia and P. aeruginosa. | column: K. pneumoniae BAMC 07-18 / MBC (μg/mL)/(μM)
# P. aeruginosa PAO1 [5] = conditions: for in vitro inhibitory activity: against P. aeruginosa
# [6] = system: LPS isolated from P. aeruginosa or K. pneumoniae; experiment: Precipitation of AMP-LPS mixtures prepared for CD; type: physicochemical; conditions: 350 μL stock LPS + 50 μL stock peptide, phosphate buffer; CD spectra could not be obtained
# Protocol: as §1
# [7] = P. aeruginosa PAO1, light face value
# [8] = K. pneumoniae BAMC 07-18, light face value
Structure (SMILES),solubility in phosphate buffer at approximately 2 mg in 1.0 mL [2],MBC (P. aeruginosa PAO1 [1]; [7]) [µg/mL],MBC (P. aeruginosa PAO1 [1]; PAO1),MIC (K. pneumoniae BAMC 07-18 [3]; BAMC 07-18),MIC (K. pneumoniae BAMC 07-18 [3]; [8]) [µg/mL],MBC (K. pneumoniae BAMC 07-18 [4]; BAMC 07-18),MBC (K. pneumoniae BAMC 07-18 [4]; [8]) [µg/mL],MIC (P. aeruginosa PAO1 [5]; [7]) [µg/mL],MIC (P. aeruginosa PAO1 [5]; PAO1),in vitro inhibitory activity (P. aeruginosa PAO1 [5]) [µg/mL],in vitro inhibitory activity (K. pneumoniae BAMC 07-18 [3]) [µg/mL],precipitation in the presence of either LPS [6]
CC(C)C[C@H](NC(=O)[C@@H](N)CCCN)C(=O)N1Cc2ccccc2C[C@H]1C(=O)N1[C@H](C(=O)N[C@@H](CCCN)C(=O)N2Cc3ccccc3C[C@H]2C(=O)N2[C@H](C(=O)N[C@@H](Cc3ccccc3)C(=O)N3Cc4ccccc4C[C@H]3C(=O)N3[C@H](C(=O)N[C@@H](CCCN)C(=O)N4Cc5ccccc5C[C@H]4C(=O)N4[C@H](C(=O)N[C@@H](Cc5ccccc5)C(=O)N5Cc6ccccc6C[C@H]5C(=O)N5[C@H](C(=O)N[C@@H](CCCN)C(=O)N6Cc7ccccc7C[C@H]6C(=O)N6[C@H](C(=O)N[C@@H](CCCN)C(=O)N[C@@H](CCCN)C(=O)N[C@@H](CCCN)C(=O)N[C@@H](CCCN)C(N)=O)C[C@@H]7CCCC[C@@H]76)C[C@@H]6CCCC[C@@H]65)C[C@@H]5CCCC[C@@H]54)C[C@@H]4CCCC[C@@H]43)C[C@@H]3CCCC[C@@H]32)C[C@@H]2CCCC[C@@H]21 [AMP 71] (H-[Orn]L[Tic][Oic][Orn][Tic][Oic]F[Tic][Oic][Orn][Tic][Oic]F[Tic][Oic][Orn][Tic][Oic][Orn][Orn][Orn][Orn]-NH2),–,–,–,31.2 µM,100,–,–,100,31.2 µM,–,–,precipitation of uncharacterized AMP-LPS complexes
CC(C)C[C@H](NC(=O)[C@@H](N)CN)C(=O)N1Cc2ccccc2C[C@H]1C(=O)N1[C@H](C(=O)N[C@@H](CN)C(=O)N2Cc3ccccc3C[C@H]2C(=O)N2[C@H](C(=O)N[C@@H](Cc3ccccc3)C(=O)N3Cc4ccccc4C[C@H]3C(=O)N3[C@H](C(=O)N[C@@H](CN)C(=O)N4Cc5ccccc5C[C@H]4C(=O)N4[C@H](C(=O)N[C@@H](Cc5ccccc5)C(=O)N5Cc6ccccc6C[C@H]5C(=O)N5[C@H](C(=O)N[C@@H](CN)C(=O)N6Cc7ccccc7C[C@H]6C(=O)N6[C@H](C(=O)N[C@@H](CN)C(=O)N[C@@H](CN)C(=O)N[C@@H](CN)C(=O)N[C@@H](CN)C(N)=O)C[C@@H]7CCCC[C@@H]76)C[C@@H]6CCCC[C@@H]65)C[C@@H]5CCCC[C@@H]54)C[C@@H]4CCCC[C@@H]43)C[C@@H]3CCCC[C@@H]32)C[C@@H]2CCCC[C@@H]21 [AMP 72] (H-[Dap]L[Tic][Oic][Dap][Tic][Oic]F[Tic][Oic][Dap][Tic][Oic]F[Tic][Oic][Dap][Tic][Oic][Dap][Dap][Dap][Dap]-NH2),–,100,33.6 µM,33.6 µM,100,33.6 µM,100,50,16.8 µM,–,–,precipitation of uncharacterized AMP-LPS complexes
"CC(C)C[C@H](NC(=O)[C@@H](N)CCCCN)C(=O)N1Cc2ccccc2C[C@H]1C(=O)N1C2CCCCC2C[C@H]1C(=O)N[C@@H](CCCCN)C(=O)NCC(=O)N1Cc2ccccc2C[C@H]1C(=O)N1C2CCCCC2C[C@H]1C(=O)N[C@@H](Cc1ccccc1)C(=O)N1Cc2ccccc2C[C@H]1C(=O)N1C2CCCCC2C[C@H]1C(=O)N[C@@H](CCCCN)C(=O)NCC(=O)N1Cc2ccccc2C[C@H]1C(=O)N1C2CCCCC2C[C@H]1C(=O)N[C@@H](Cc1ccccc1)C(=O)N1Cc2ccccc2C[C@H]1C(=O)N1C2CCCCC2C[C@H]1C(=O)N[C@@H](CCCCN)C(=O)NCC(=O)N1Cc2ccccc2C[C@H]1C(=O)N1C2CCCCC2C[C@H]1C(=O)N[C@@H](CCCCN)C(=O)N[C@@H](CCCCN)C(=O)N[C@@H](CCCCN)C(=O)N[C@@H](CCCCN)C(N)=O (stereo partly drawn) [AMP 78] (H-KL[Tic][Oic(3aξ,7aξ)]KG[Tic][Oic(3aξ,7aξ)]F[Tic][Oic(3aξ,7aξ)]KG[Tic][Oic(3aξ,7aξ)]F[Tic][Oic(3aξ,7aξ)]KG[Tic][Oic(3aξ,7aξ)]KKKK-NH2)",solubility issues,50,14.3 µM,14.3 µM,50,28.6 µM,100,50,14.3 µM,50,50,–
CC(C)C[C@H](NC(=O)[C@@H](N)CCN)C(=O)N1Cc2ccccc2C[C@H]1C(=O)N1[C@H](C(=O)N[C@@H](CCN)C(=O)N2Cc3ccccc3C[C@H]2C(=O)N2[C@H](C(=O)N[C@@H](Cc3ccccc3)C(=O)N3Cc4ccccc4C[C@H]3C(=O)N3[C@H](C(=O)N[C@@H](CCN)C(=O)N4Cc5ccccc5C[C@H]4C(=O)N4[C@H](C(=O)N[C@@H](Cc5ccccc5)C(=O)N5Cc6ccccc6C[C@H]5C(=O)N5[C@H](C(=O)N[C@@H](CCN)C(=O)N6Cc7ccccc7C[C@H]6C(=O)N6[C@H](C(=O)N[C@@H](CCN)C(=O)N[C@@H](CCN)C(=O)N[C@@H](CCN)C(=O)N[C@@H](CCN)C(N)=O)C[C@@H]7CCCC[C@@H]76)C[C@@H]6CCCC[C@@H]65)C[C@@H]5CCCC[C@@H]54)C[C@@H]4CCCC[C@@H]43)C[C@@H]3CCCC[C@@H]32)C[C@@H]2CCCC[C@@H]21 [AMP 73] (H-[Dab]L[Tic][Oic][Dab][Tic][Oic]F[Tic][Oic][Dab][Tic][Oic]F[Tic][Oic][Dab][Tic][Oic][Dab][Dab][Dab][Dab]-NH2),–,100,32.4 µM,16.2 µM,50,32.4 µM,100,50,16.2 µM,–,–,precipitation of uncharacterized AMP-LPS complexes

# Second part, led by results:
solubility in phosphate buffer at approximately 2 mg in 1.0 mL [2],Structure (SMILES),MBC (P. aeruginosa PAO1 [1]; [7]) [µg/mL],MBC (P. aeruginosa PAO1 [1]; PAO1),MIC (K. pneumoniae BAMC 07-18 [3]; BAMC 07-18),MIC (K. pneumoniae BAMC 07-18 [3]; [8]) [µg/mL],MBC (K. pneumoniae BAMC 07-18 [4]; BAMC 07-18),MBC (K. pneumoniae BAMC 07-18 [4]; [8]) [µg/mL],MIC (P. aeruginosa PAO1 [5]; [7]) [µg/mL],MIC (P. aeruginosa PAO1 [5]; PAO1),in vitro inhibitory activity (P. aeruginosa PAO1 [5]) [µg/mL],in vitro inhibitory activity (K. pneumoniae BAMC 07-18 [3]) [µg/mL],precipitation in the presence of either LPS [6]
solubility issues,CC(C)C[C@H](NC(=O)[C@@H](N)CCCCN)C(=O)N1Cc2ccccc2C[C@H]1C(=O)N1[C@H](C(=O)N[C@@H](CCCCN)C(=O)N2Cc3ccccc3C[C@H]2C(=O)N2[C@H](C(=O)N[C@@H](Cc3ccccc3)C(=O)NCC(=O)N3Cc4ccccc4C[C@H]3C(=O)N3[C@H](C(=O)N[C@@H](CCCCN)C(=O)N4Cc5ccccc5C[C@H]4C(=O)N4[C@H](C(=O)N[C@@H](Cc5ccccc5)C(=O)NCC(=O)N5Cc6ccccc6C[C@H]5C(=O)N5[C@H](C(=O)N[C@@H](CCCCN)C(=O)N6Cc7ccccc7C[C@H]6C(=O)N6[C@H](C(=O)N[C@@H](CCCCN)C(=O)N[C@@H](CCCCN)C(=O)N[C@@H](CCCCN)C(=O)N[C@@H](CCCCN)C(N)=O)C[C@@H]7CCCC[C@@H]76)C[C@@H]6CCCC[C@@H]65)C[C@@H]5CCCC[C@@H]54)C[C@@H]4CCCC[C@@H]43)C[C@@H]3CCCC[C@@H]32)C[C@@H]2CCCC[C@@H]21 [AMP 77] (H-KL[Tic][Oic]K[Tic][Oic]FG[Tic][Oic]K[Tic][Oic]FG[Tic][Oic]K[Tic][Oic]KKKK-NH2),50,14.6 µM,14.6 µM,50,29.2 µM,100,50,14.6 µM,50,–,–
solubility issues,CC(C)C[C@H](NC(=O)[C@@H](N)CCCCN)C(=O)N1Cc2ccccc2C[C@H]1C(=O)N1[C@H](C(=O)N[C@@H](CCCCN)C(=O)N2Cc3ccccc3C[C@H]2C(=O)N2[C@H](C(=O)N[C@@H](Cc3ccccc3)C(=O)N3Cc4ccccc4C[C@H]3C(=O)N3[C@H](C(=O)N[C@@H](CCCCN)C(=O)N4Cc5ccccc5C[C@H]4C(=O)N4[C@H](C(=O)N[C@@H](Cc5ccccc5)C(=O)N5Cc6ccccc6C[C@H]5C(=O)N5[C@H](C(=O)N[C@@H](CCCCN)C(=O)N6Cc7ccccc7C[C@H]6C(=O)N6[C@H](C(=O)N[C@@H](CCCCN)C(=O)N[C@@H](CCCNC(=N)N)C(N)=O)C[C@@H]7CCCC[C@@H]76)C[C@@H]6CCCC[C@@H]65)C[C@@H]5CCCC[C@@H]54)C[C@@H]4CCCC[C@@H]43)C[C@@H]3CCCC[C@@H]32)C[C@@H]2CCCC[C@@H]21 [AMP 22] (H-KL[Tic][Oic]K[Tic][Oic]F[Tic][Oic]K[Tic][Oic]F[Tic][Oic]K[Tic][Oic]KR-NH2),–,>100 µg/mL,>100 µg/mL,–,>100 µg/mL,–,–,>100 µg/mL,≥ 100,≥ 100,–

# Reference: publication PMC4295349, “Synthetic Antimicrobial Peptides Exhibit Two Different Binding Mechanisms to the Lipopolysaccharides Isolated from Pseudomonas aeruginosa and Klebsiella pneumoniae” (International Journal of Medicinal Chemistry, 2014)
